Data on 14 molecules can be found in US10611740B2, “Aryl dihydro-2H-benzo[b][1,4]oxazine sulfonamide and related compounds for use as agonists of RORγ and the treatment of disease” (Lycera Corporation, priority 2015, dated 2020).

One assay deals with T1, RORγ-LBD (Homo sapiens, UniProt P51449).
T1 construct: made in house; host or cells: SF9 cells (baculovirus)
T1 sequence (P51449 269-508 limits assumed): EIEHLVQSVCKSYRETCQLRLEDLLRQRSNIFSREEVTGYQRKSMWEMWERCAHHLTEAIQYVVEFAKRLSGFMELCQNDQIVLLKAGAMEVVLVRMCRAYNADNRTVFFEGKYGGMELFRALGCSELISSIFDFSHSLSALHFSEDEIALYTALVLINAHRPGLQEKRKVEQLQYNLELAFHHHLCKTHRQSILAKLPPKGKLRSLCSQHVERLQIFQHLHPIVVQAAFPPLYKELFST
Description: RORγ-Ligand Binding Domain (LBD) TR-FRET Assay.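 On TR-FRET Assay Max Response: 665/615 nm ratio relative to signal without ursolic acid or compound set at 100.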 It is filed as biochemical. The essentials: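 Compounds, diluted in DMSO and then in assay buffer (1% DMSO final), were combined with His-tagged RORγ-LBD lysate at roughly 3 nM final and a 200 nM biotinylated SRC1 LXXLL peptide. Ursolic acid was included at 2 μM final. Coactivator recruitment was detected by TR-FRET.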
(In general: TR-FRET usually uses a lanthanide donor and a delayed reading to cut background.)

The target of another assay is T2, Gal4-RORγ-LBD (Homo sapiens, UniProt P51449).
T2 construct: expressed in transfected cells; host or cells: HEK-293 cells (pcDNA3.1neo plasmid)
T2 sequence (P51449 269-508 limits assumed): T1 sequence (P51449 269-508 limits assumed)
Description: Gal4-RORγ Luciferase Reporter Assay in HEK-293T Cells. It is filed as cell-based. As to conditions: HEK-293 cells. The method, boiled down:
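HEK-293 cells were transiently co-transfected with Gal4-RORγ-LBD and pGL4.31 Gal4-luciferase, with ursolic acid added at 2 μM final. Compounds were incubated overnight at 37° C. in 0.2% DMSO and luminescence read with One-Glo. Max Response is the upper plateau of a 4-parameter logistic fit, with signal lacking ursolic acid or compound set to 100.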
For orientation: Reporter assays use an easily measured gene product as a stand-in for the process of interest.

Where [1] appears, read: luciferase reporter, with 2 μM ursolic acid.

The term EC50 denotes the concentration giving half of the maximal effect. Low values mean a more potent agent, high ones a less potent agent.

Consider `CC(C)(C[C@H]1CN(S(=O)(=O)c2cccc(C(F)(F)F)c2)c2cc(-c3c(Cl)cccc3Cl)ccc2O1)C(=O)O` [Compound 32AU, (S)-3-(6-(2,6-dichlorophenyl)-4-((3-(trifluoromethyl)phenyl)-sulfonyl)-3,4-dihydro-2H-benzo[b][1,4]oxazin-2-yl)-2,2-dimethylpropanoic acid], for which, on RORγ-LBD, the EC50 was < 0.5 µM and the “TR-FRET Assay Max Response” value is on record as “** (The symbol “**” indicates a value in the range of greater than 90 to 150)”. At Gal4-RORγ-LBD (2 μM ursolic acid), the half-maximal effective concentration (EC50) was < 0.5 µM and the “Gal4-RORγ Assay Max Response” value is “** (The symbol “**” indicates a value in the range of greater than 90 to 150)”.

In the case of `CC(C)(O)CC[C@H]1CN(S(=O)(=O)c2cccc(C(F)(F)F)c2)c2cc(-c3cc(F)ccc3F)ccc2O1` [Compound 10, (S)-4-(6-(2,5-difluorophenyl)-4-((3-(trifluoromethyl)phenyl)sulfonyl)-3,4-dihydro-2H-benzo[b][1,4]oxazin-2-yl)-2-methylbutan-2-ol], on RORγ-LBD, the EC50 was < 0.5 µM and the “TR-FRET Assay Max Response” value is listed as “**** (The symbol “****” indicates a value greater than 200)”. Besides, on Gal4-RORγ-LBD (setting [1]), the EC50 is < 0.5 µM and the “Gal4-RORγ Assay Max Response” value is recorded as “** (The symbol “**” indicates a value in the range of greater than 90 to 150)”.

With `O=C(O)CC[C@H]1CN(S(=O)(=O)c2cccc(C(F)(F)F)c2)c2cc(-c3ccc(F)cc3Cl)ccc2O1` [Compound 2W, (S)-3-(6-(2-chloro-4-fluorophenyl)-4-((3-(trifluoromethyl)phenyl)-sulfonyl)-3,4-dihydro-2H-benzo[b][1,4]oxazin-2-yl)propanoic acid], on RORγ-LBD, the EC50 is < 0.5 µM and the “TR-FRET Assay Max Response” value is “*** (The symbol “***” indicates a value in the range of greater than 150 to 200)”. Also, at Gal4-RORγ-LBD (setting [1]), the 50% effective concentration (EC50) lay within 0.5 to 5 µM and the “Gal4-RORγ Assay Max Response” value is “** (The symbol “**” indicates a value in the range of greater than 90 to 150)”.

As to `O=C(O)CCC[C@H]1CN(S(=O)(=O)c2cccc(C(F)(F)F)c2)c2cc(-c3cc(F)cc(F)c3Cl)ccc2O1` [Compound 21D, (S)-4-(6-(2-chloro-3,5-difluorophenyl)-4-((3-(trifluoromethyl)phenyl)sulfonyl)-3,4-dihydro-2H-benzo[b][1,4]-oxazin-2-yl)butanoic acid], on RORγ-LBD, the EC50 is < 0.5 µM and the “TR-FRET Assay Max Response” value was “*** (The symbol “***” indicates a value in the range of greater than 150 to 200)”. For the same molecule, on Gal4-RORγ-LBD (setting [1]), the EC50 was < 0.5 µM and the “Gal4-RORγ Assay Max Response” value is “*** (The symbol “***” indicates a value in the range of greater than 150 to 200)”.

Consider `CNS(=O)(=O)NC[C@H]1CN(S(=O)(=O)c2cccc(C(F)(F)F)c2)c2cc(-c3cc(F)ccc3F)ccc2O1` [Compound 44, ([[(2S)-6-(2,5-difluorophenyl)-4-[[3-(trifluoromethyl)benzene]sulfonyl]-3,4-dihydro-2H-1,4-benzoxazin-2-yl]methyl]sulfamoyl)(methyl)amine], for which, at RORγ-LBD, the EC50 is < 0.5 µM and the “TR-FRET Assay Max Response” value was “**** (The symbol “****” indicates a value greater than 200)”. Besides, at Gal4-RORγ-LBD (setting [1]), the concentration giving a half-maximal response (EC50) is < 0.5 µM and the “Gal4-RORγ Assay Max Response” value is listed as “** (The symbol “**” indicates a value in the range of greater than 90 to 150)”.

Take `CC(C)(CC[C@H]1CN(S(=O)(=O)c2cccc(OC(F)F)c2)c2cc(-c3cc(F)ccc3F)ccc2O1)C(=O)O` [Compound 32T, (S)-4-(4-((3-(difluoro-methoxy)phenyl)sulfonyl)-6-(2,5-difluorophenyl)-3,4-dihydro-2H-benzo[b][1,4]oxazin-2-yl)-2,2-dimethylbutanoic acid]: on RORγ-LBD, the EC50 is < 0.5 µM and the “TR-FRET Assay Max Response” value is listed as “*** (The symbol “***” indicates a value in the range of greater than 150 to 200)”. In addition, at Gal4-RORγ-LBD (2 μM ursolic acid), the EC50 was < 0.5 µM and the “Gal4-RORγ Assay Max Response” value was “** (The symbol “**” indicates a value in the range of greater than 90 to 150)”.

As for `NCC[C@H]1CN(S(=O)(=O)c2cccc(C(F)(F)F)c2)c2cc(-c3cc(F)ccc3F)ccc2O1` [Compound 27, (S)-2-(6-(2,5-difluorophenyl)-4-((3-(trifluoromethyl)phenyl)sulfonyl)-3,4-dihydro-2H-benzo[b][1,4]oxazin-2-yl)ethan-1-amine], at RORγ-LBD, the EC50 is < 0.5 µM and the “TR-FRET Assay Max Response” value is “**** (The symbol “****” indicates a value greater than 200)”. At Gal4-RORγ-LBD (setting [1]), the EC50 lay within 0.5 to 5 µM and the “Gal4-RORγ Assay Max Response” value is reported as “* (The symbol “*” indicates a value in the range of 25 to 90)”.

For `CC(=O)N1CC(C[C@H]2CN(S(=O)(=O)c3cccc(C(F)(F)F)c3)c3cc(-c4cc(F)cc(OC(F)F)c4)ccc3O2)C1` [Compound 61, (S)-1-(3-((6-(3-(difluoromethoxy)-5-fluorophenyl)-4-((3-(trifluoromethyl)phenyl)sulfonyl)-3,4-dihydro-2H-benzo[b][1,4]oxazin-2-yl)methyl)azetidin-1-yl)ethan-1-one], at RORγ-LBD, the half-maximal effective concentration (EC50) was < 0.5 µM and the “TR-FRET Assay Max Response” value is reported as “*** (The symbol “***” indicates a value in the range of greater than 150 to 200)”. In addition, at Gal4-RORγ-LBD (2 μM ursolic acid), the EC50 was < 0.5 µM and the “Gal4-RORγ Assay Max Response” value is “** (The symbol “**” indicates a value in the range of greater than 90 to 150)”.

For the molecule `O=S(=O)(c1cccc(C(F)(F)F)c1)N1C[C@H](CCCO)Oc2ccc(-c3cc(F)cc(F)c3)cc21` [Compound 34C, (S)-3-(6-(3,5-difluorophenyl)-4-((3-(trifluoromethyl)phenyl)-sulfonyl)-3,4-dihydro-2H-benzo[b][1,4]oxazin-2-yl)propan-1-ol], at RORγ-LBD, the EC50 is < 0.5 µM and the “TR-FRET Assay Max Response” value is “**** (The symbol “****” indicates a value greater than 200)”. Also, at Gal4-RORγ-LBD (setting [1]), the EC50 is < 0.5 µM and the “Gal4-RORγ Assay Max Response” value is “** (The symbol “**” indicates a value in the range of greater than 90 to 150)”.

For the molecule `COc1cccc(-c2ccc3c(c2)N(S(=O)(=O)c2cccc(C(F)(F)F)c2)C[C@H](CCCOc2noc(=O)[nH]2)O3)c1` [Compound 36B, (S)-3-(3-(6-(3-methoxyphenyl)-4-((3-(trifluoromethyl)phenyl)-sulfonyl)-3,4-dihydro-2H-benzo[b][1,4]oxazin-2-yl)propoxy)-1,2,4-oxadiazol-5(4H)-one], on RORγ-LBD, the EC50 is < 0.5 µM and the “TR-FRET Assay Max Response” value is reported as “**** (The symbol “****” indicates a value greater than 200)”. In addition, at Gal4-RORγ-LBD (setting [1]), the EC50 is < 0.5 µM and the “Gal4-RORγ Assay Max Response” value is “** (The symbol “**” indicates a value in the range of greater than 90 to 150)”.

For `CC(C)(C[C@H]1CN(S(=O)(=O)c2cccc(C(F)(F)F)c2)c2cc(-c3cc(C(F)(F)F)ccc3Cl)ccc2O1)C(=O)O` [Compound 32AD, (S)-3-(6-(2-chloro-5-(trifluoromethyl)phenyl)-4-((3-(trifluoromethyl)phenyl)sulfonyl)-3,4-dihydro-2H-benzo[b][1,4]oxazin-2-yl)-2,2-dimethylpropanoic acid], on RORγ-LBD, the EC50 is < 0.5 µM and the “TR-FRET Assay Max Response” value is “*** (The symbol “***” indicates a value in the range of greater than 150 to 200)”. At Gal4-RORγ-LBD (2 μM ursolic acid), the EC50 was < 0.5 µM and the “Gal4-RORγ Assay Max Response” value is “* (The symbol “*” indicates a value in the range of 25 to 90)”.

In the case of `COc1cccc(-c2ccc3c(c2)N(S(=O)(=O)c2ccc(F)c(OC)c2)C[C@H](CCNC(=O)C(C)(C)O)O3)c1` [Compound 30N, (S)-N-(2-(4-((4-fluoro-3-methoxyphenyl)sulfonyl)-6-(3-methoxyphenyl)-3,4-dihydro-2H-benzo[b][1,4]oxazin-2-yl)ethyl)-2-hydroxy-2-methylpropanamide], at RORγ-LBD, the EC50 was < 0.5 µM and the “TR-FRET Assay Max Response” value is reported as “*** (The symbol “***” indicates a value in the range of greater than 150 to 200)”. Further, at Gal4-RORγ-LBD (setting [1]), the EC50 was < 0.5 µM and the “Gal4-RORγ Assay Max Response” value is “* (The symbol “*” indicates a value in the range of 25 to 90)”.

For `O=C(O)[C@]1(C[C@H]2CN(S(=O)(=O)c3cccc(C(F)(F)F)c3)c3cc(-c4cc(F)cc(OC(F)F)c4)ccc3O2)CCNC1=O` [Compound 73, (S)-3-(((S)-6-(3-(difluoromethoxy)-5-fluorophenyl)-4-((3-(trifluoromethyl)phenyl)sulfonyl)-3,4-dihydro-2H-benzo[b][1,4]oxazin-2-yl)methyl)-2-oxopyrrolidine-3-carboxylic acid], at RORγ-LBD, the EC50 was < 0.5 µM and the “TR-FRET Assay Max Response” value was “*** (The symbol “***” indicates a value in the range of greater than 150 to 200)”. On Gal4-RORγ-LBD (2 μM ursolic acid), the EC50 is < 0.5 µM and the “Gal4-RORγ Assay Max Response” value is on record as “** (The symbol “**” indicates a value in the range of greater than 90 to 150)”.

As to `Cc1nnc(-c2ccc3c(c2)N(S(=O)(=O)c2cccc(C(F)(F)F)c2)C[C@H](CCC(=O)O)O3)o1` [Compound 4Z, (S)-3-(6-(5-methyl-1,3,4-oxadiazol-2-yl)-4-((3-(trifluoro-methyl)phenyl)sulfonyl)-3,4-dihydro-2H-benzo[b][1,4]-oxazin-2-yl)propanoic acid], on RORγ-LBD, the EC50 was 0.5 to 5 µM and the “TR-FRET Assay Max Response” value was “* (The symbol “*” indicates a value in the range of 25 to 90)”. On Gal4-RORγ-LBD (setting [1]), the EC50 is > 10 µM.
